Test results from PubChem BioAssay AID1963830 (Molecular Pharmacology Branch, DTP, NCI, 2024).
Where “and” joins values, the source holds several entries; their conditions need not be identical. Equal values may be shown once.

Tested on: 922993-354-T-J3-PDC complex spheroid viability
Assay: Anticancer human tumor 922993-354-T-J3-PDC patient-derived endometrial carcinoma cell line growth inhibition [POLQ]
Settings: for viability, T/C: stronger effect = lower value
Protocol: Multicellular complex tumor spheroid response to Polymerase (POL) inhibitors (novobiocin, ART-558, RP6685) in combination with a variety of drugs and investigational agents in selected tumor cell lines
The POL inhibitors (novobiocin, ART-558, and RP6685) were evaluated both individually and in combination with standard of care and investigational anticancer small molecules within a complex spheroid model of solid tumors. . Complex spheroids include a stromal component modeled by human endothelial cells (HUVEC) and fibroblasts modeled by human mesenchymal stem cells (MSCs). The concentration ranges selected for each drug and investigational agent were based upon clinically achievable concentrations if the clinical Cmax of the agent was known.
Compounds. The drugs and investigational agents: novobiocin (NSC847541), ART-558 (NSC835418), RP-6685 (NSC848927), peposertib (NSC802822), ceralasertib (NSC780249), elimusertib (NSC800525), camonsertib (NSC841442), AZD-1390 (NSC803789), olaparib (NSC753686), talazoparib (NSC767125), rucaparib (NSC756644), sotorasib (NSC818433), MRTX-1133 (NSC836407), SN-38 (NSC673596), topotecan (NSC609699), epotoside (NSC141540), doxorubicin (NSC123127), gemcitabine (NSC613327), 5-fluorouracil (NSC19893), paclitaxel (NSC125973), vemurafenib (NSC761431), MSA-2 (NSC828583), SN-011 (NSC837082), adavosertib (NSC754352), prexasertib (NSC758257), carboplatin (NSC241240) and oxaliplatin (NSC266046), were obtained from the National Cancer Institute (NCI) Developmental Therapeutics Program Chemical Repository (21). The FDA-approved anticancer drug set is available from the Developmental Therapeutics Program at https://dtp.cancer.gov/organization/dscb/obtaining/. […] The stock solutions were prepared in dimethyl sulfoxide (DMSO, Sigma-Aldrich, St. Louis, MO, cat. D2650), except for the platinum compounds which were prepared in saline (Quality Biological, Gaithersburg, MD, cat. 114-055-101), at 800-fold the tested concentration and stored at -70 degrees C prior to their use. All drugs and investigational agents were tested over a range starting from a high concentration at or near the clinical Cmax and decreasing in half-log increments. If the clinical Cmax for an agent had not been determined, the highest concentration tested was 10 microM, except for SN-38, which was tested at a high concentration of 1 microM.
Cell Culture. All cells were maintained in an incubator at 37 degrees C and 5% CO2 with 95% humidity. The PDC lines were cultured according to standard operating procedures established by the NCI PDMR (https://pdmr.cancer.gov). Table 3 of the manuscript, lists the cell lines along with the number of the three cell types plated to form the mct-spheroids and media for tumor cell growth. After thawing, all PDC lines, except 997537-175-T-J1-PDC and 415267-285-R-J2-PDC, were cultured in Matrigel-coated flasks prepared with a working solution of 1X Ham's F-12 nutrient mix, without supplementation (Thermo Fisher Scientific, cat. 11765054), 100 U/mL penicillin-streptomycin (Thermo Fisher Scientific, cat. 15140122), and 2.5% Matrigel (Corning Inc., Corning, NY, cat. 354248) for the first three passages. The two PDC lines 997537-175-T-J1-PDC and 415267-285-R-J2-PDC were cultured on uncoated flasks. The 857933-349-R-J2-PDC line was cultured in 6C/Colon 1B media containing advanced DMEM/F-12 (Thermo Fisher Scientific, cat. 12634028), 10 mM HEPES (Thermo Fisher Scientific, cat. 15630080), 1X GlutaMAX supplement (Thermo Fisher Scientific, cat. 35050061), 0.1 mg/mL primocin (InvivoGen, San Diego, CA, cat. ant-pm-2), 10% defined fetal bovine serum, heat inactivated (HyClone Laboratories Inc., Logan, UT, cat. SH30070.03HI), 50% L-WRN conditioned media (ATCC, cat. CRL-3276), 1.25 mM N-Acetyl-L-cysteine (Sigma-Aldrich, cat. A9165), 10 mM nicotinamide (Sigma-Aldrich, cat. N0636), 1X B-27 supplement (Thermo Fisher Scientific, cat. 17504044), 1X N-2 supplement (Thermo Fisher Scientific, cat. […]

[1] = curve of first compound, second compound 0.0316 µM
[2] = curve of first compound, second compound 0.1 µM
[3] = curve of first compound, second compound 0.316 µM
[4] = curve of first compound, second compound 1 µM
[5] = curve of first compound, second compound 3.16 µM
[6] = curve of first compound, second compound 10 µM
[7] = second compound 0.0316 µM, first compound 0.0316 µM
[8] = second compound 0.0316 µM, first compound 0.1 µM
[9] = second compound 0.1 µM, first compound 0.0316 µM
[10] = second compound 0.1 µM, first compound 0.1 µM
[11] = second compound 0.316 µM, first compound 0.0316 µM
[12] = second compound 0.316 µM, first compound 0.1 µM
[13] = second compound 1 µM, first compound 0.0316 µM
[14] = second compound 1 µM, first compound 0.1 µM
[15] = second compound 3.16 µM, first compound 0.0316 µM
[16] = second compound 3.16 µM, first compound 0.1 µM
[17] = second compound 10 µM, first compound 0.0316 µM
[18] = second compound 10 µM, first compound 0.1 µM
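Further: spheroids exposed to the agents for one week.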
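Wherever viability, T/C is given: 100% = DMSO vehicle control wells.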

CCc1cc2c(N3CCc4c(cc(Cn5ccnc5)cc4-c4cn(C)nc4C(F)(F)F)C3=O)cc(C)nc2c(OC)n1 + Nc1ccc(C#CCN(C(=O)Cc2ncc(C(F)(F)F)cc2C(F)(F)F)c2ccc(F)cc2)nn1 was tested, and the IC50 [1] was over 10 µM, the IC50 [2] was over 10 µM and the IC50 [3] was over 10 µM. It also gave an IC50 [4] of over 10 µM, an IC50 [5] of over 10 µM and an IC50 [6] of over 10 µM. For the same compound, the viability, T/C [7] was 103%, the viability, T/C [8] was 106% and the viability, T/C (second compound 0.0316 µM, first compound 0.316 µM) was 105%. For the same compound, the viability, T/C (second compound 0.0316 µM, first compound 1 µM) was 110%, the viability, T/C (second compound 0.0316 µM, first compound 3.16 µM) was 107% and the viability, T/C (second compound 0.0316 µM, first compound 10 µM) was 101%. It also gave a viability, T/C [9] of 108%, a viability, T/C [10] of 106% and a viability, T/C (second compound 0.1 µM, first compound 0.316 µM) of 108%. The viability, T/C (second compound 0.1 µM, first compound 1 µM) was 105%, the viability, T/C (second compound 0.1 µM, first compound 3.16 µM) was 101% and the viability, T/C (second compound 0.1 µM, first compound 10 µM) was 102%. For the same compound, the viability, T/C [11] was 103%, the viability, T/C [12] was 98.1% and the viability, T/C (second compound 0.316 µM, first compound 0.316 µM) was 105%. For the same compound, the viability, T/C (second compound 0.316 µM, first compound 1 µM) was 106%, the viability, T/C (second compound 0.316 µM, first compound 3.16 µM) was 109% and the viability, T/C (second compound 0.316 µM, first compound 10 µM) was 104%. For the same compound, the viability, T/C [13] was 102%, the viability, T/C [14] was 100% and the viability, T/C (second compound 1 µM, first compound 0.316 µM) was 107%. It also gave a viability, T/C (second compound 1 µM, first compound 1 µM) of 107%, a viability, T/C (second compound 1 µM, first compound 3.16 µM) of 106% and a viability, T/C (second compound 1 µM, first compound 10 µM) of 99.1%. For the same compound, the viability, T/C [15] was 99.8%, the viability, T/C [16] was 107% and the viability, T/C (second compound 3.16 µM, first compound 0.316 µM) was 102%. It also gave a viability, T/C (second compound 3.16 µM, first compound 1 µM) of 105%, a viability, T/C (second compound 3.16 µM, first compound 3.16 µM) of 103% and a viability, T/C (second compound 3.16 µM, first compound 10 µM) of 99.6%. The viability, T/C [17] was 99%, the viability, T/C [18] was 98.3% and the viability, T/C (second compound 10 µM, first compound 0.316 µM) was 100%. For the same compound, the viability, T/C (second compound 10 µM, first compound 1 µM) was 102%, the viability, T/C (second compound 10 µM, first compound 3.16 µM) was 99.3% and the viability, T/C (second compound 10 µM, first compound 10 µM) was 92%.
With CC[C@@]1(O)C(=O)OCc2c1cc1n(c2=O)Cc2cc3c(CN(C)C)c(O)ccc3nc2-1 + COC1C(OC(N)=O)C(O)C(Oc2ccc3c(O)c(NC(=O)c4ccc(O)c(CC=C(C)C)c4)c(=O)oc3c2C)OC1(C)C the IC50 [1] was 0.0749 µM, the IC50 [2] was 0.0708 µM and the IC50 [3] was 0.0841 µM. It also gave an IC50 [4] of 0.0703 µM, an IC50 [5] of 0.0707 µM and an IC50 [6] of 0.0783 µM. It also gave a viability, T/C (second compound 0.0316 µM, first compound 0.000316 µM) of 102%, a viability, T/C (second compound 0.0316 µM, first compound 0.001 µM) of 83% and a viability, T/C (second compound 0.0316 µM, first compound 0.00316 µM) of 98.2%. For the same compound, the viability, T/C (second compound 0.0316 µM, first compound 0.01 µM) was 93.5%, the viability, T/C [7] was 76% and the viability, T/C [8] was 41.3%. It also gave a viability, T/C (second compound 0.1 µM, first compound 0.000316 µM) of 100%, a viability, T/C (second compound 0.1 µM, first compound 0.001 µM) of 101% and a viability, T/C (second compound 0.1 µM, first compound 0.00316 µM) of 102%. For the same compound, the viability, T/C (second compound 0.1 µM, first compound 0.01 µM) was 98.8%, the viability, T/C [9] was 75.3% and the viability, T/C [10] was 39.1%. The viability, T/C (second compound 0.316 µM, first compound 0.000316 µM) was 100%, the viability, T/C (second compound 0.316 µM, first compound 0.001 µM) was 96.6% and the viability, T/C (second compound 0.316 µM, first compound 0.00316 µM) was 100%. It also gave a viability, T/C (second compound 0.316 µM, first compound 0.01 µM) of 96.5%, a viability, T/C [11] of 85.9% and a viability, T/C [12] of 43.6%. It also gave a viability, T/C (second compound 1 µM, first compound 0.000316 µM) of 108%, a viability, T/C (second compound 1 µM, first compound 0.001 µM) of 98.7% and a viability, T/C (second compound 1 µM, first compound 0.00316 µM) of 96.9%. The viability, T/C (second compound 1 µM, first compound 0.01 µM) was 94.6%, the viability, T/C [13] was 73.3% and the viability, T/C [14] was 39.2%. For the same compound, the viability, T/C (second compound 3.16 µM, first compound 0.000316 µM) was 93.9%, the viability, T/C (second compound 3.16 µM, first compound 0.001 µM) was 99% and the viability, T/C (second compound 3.16 µM, first compound 0.00316 µM) was 89.7%. The viability, T/C (second compound 3.16 µM, first compound 0.01 µM) was 90.9%, the viability, T/C [15] was 79% and the viability, T/C [16] was 37.2%. For the same compound, the viability, T/C (second compound 10 µM, first compound 0.000316 µM) was 92.6%, the viability, T/C (second compound 10 µM, first compound 0.001 µM) was 76.9% and the viability, T/C (second compound 10 µM, first compound 0.00316 µM) was 88.3%. For the same compound, the viability, T/C (second compound 10 µM, first compound 0.01 µM) was 84.4%, the viability, T/C [17] was 84.6% and the viability, T/C [18] was 40.7%.
In the case of CC(=O)O[C@H]1C(=O)[C@@]2(C)[C@H]([C@H](OC(=O)c3ccccc3)[C@]3(O)C[C@H](OC(=O)[C@H](O)[C@@H](NC(=O)c4ccccc4)c4ccccc4)C(C)=C1C3(C)C)[C@]1(OC(C)=O)CO[C@@H]1C[C@@H]2O, the viability, T/C (compound 0.00949 µM) is reported as 105% and 103% and 101%, the viability, T/C (compound 0.03 µM) is reported as 99% and 101% and 96.3% and the viability, T/C (compound 0.0949 µM) is reported as 99.6% and 106% and 95.9%. For the same compound, the viability, T/C (compound 0.3 µM) was 105% (2×) and 108%, the viability, T/C (compound 0.949 µM) was 101% and 95.8% and 89.9% and the viability, T/C (compound 3 µM) was 74.1% and 74.5% and 52%. It also gave an IC50 (curve of compound) of over 3 µM.
In the case of COC1C(OC(N)=O)C(O)C(Oc2ccc3c(O)c(NC(=O)c4ccc(O)c(CC=C(C)C)c4)c(=O)oc3c2C)OC1(C)C (stereo not given), the viability, T/C (compound 0.0316 µM) is reported as 100% [middle of 13 runs], the viability, T/C (compound 0.1 µM) is reported as 102% [middle of 13 runs] and the viability, T/C (compound 0.316 µM) is reported as 98.2% [middle of 13 runs]. The viability, T/C (compound 1 µM) was 101% [middle of 13 runs], the viability, T/C (compound 3.16 µM) was 97.6% [middle of 13 runs] and the viability, T/C (compound 10 µM) was 93.8% [middle of 13 runs]. It also gave an IC50 (compound alone, run of 10/31/2023) of over 10 µM.
O=C(c1cc(Cc2n[nH]c(=O)c3ccccc23)ccc1F)N1CCN(C(=O)C2CC2)CC1 was tested, and the viability, T/C (compound 0.0316 µM) was 107% and 111% and 103%, the viability, T/C (compound 0.1 µM) was 100% and 97.4% and 101% and the viability, T/C (compound 0.316 µM) was 95.3% and 93.3% and 102%. The viability, T/C (compound 1 µM) was 106% and 94% and 101%, the viability, T/C (compound 3.16 µM) was 92% and 94% and 104% and the viability, T/C (compound 10 µM) was 96.9% and 99.4% and 94.8%. The IC50 (curve of compound) was over 10 µM.
